From patent US12152087B2, “Deuterated melflufen compounds” (Oncopeptides AB, priority 2018, dated 2024)
Structures can show the parent of a compound that is named as a salt. Where two headings read alike, the source gives them in different places.

Tests used:
[1] = Comparative single dose toxicokinetic study in dogs, 30 minutes intravenous infusion; format: in vivo, beagle dogs; settings: for half-life / AUC(0-t) / Tmax / Cmax: beagle, dog; for half-life / AUC(0-t) / Tmax / Cmax / Tlast: plasma; for half-life: intravenous, estimable in one animal only, read-out: half-life; for AUC(0-t) / Tmax / Cmax: iv; for AUC(0-t) / Tmax / Cmax / Tlast: mean, labelled analyte; for Cmax: read-out: Cmax; for increase of systemic exposure with increasing doses, assuming dose proportionality: increasing doses of melflufen-d5 (III) infusion (1.25 and 2.5 mg/kg)
Protocol: A comparative single dose toxicity study in dogs was carried out, comparing melflufen-d5 (III) and melflufen to investigate the toxicokinetics of melflufen and melflufen-d5 (III) and their metabolites, desethyl-melflufen and melphalan, after a single intravenous administration of melflufen-d5 (III) or melflufen as 30 minutes infusion in the dog.
This study aimed to compare the potential acute toxicity of melflufen-d5 (III) and melflufen. The toxicokinetics of melflufen-d5 (III), melflufen and their metabolites desethyl-melflufen and melphalan were evaluated after a single intravenous administration as 30 minutes infusion in dogs.
Melflufen-d5 (III) or melflufen were given as 30 minutes infusion to male and female dogs according to the following scheme:
Blood samples were collected from peripheral vein on Day 1 at pre-dose, 15 min, 30 min (just prior to end of infusion), 40 min, 1 h, 2 h, 4 h and 6 h after the start of infusion).
Blood samples were collected into heparinized collection tubes, put in an ice-water bath and immediately centrifuged (3 minutes, 10000 g, +4° C.). The obtained plasma was divided into two aliquots, placed into pre-chilled cryovials and in a freezer at −70° C. until analysis.
Toxicokinetic Calculations Plasma toxicokinetic analyses for melflufen-d5 (III), melflufen and their metabolites, desethyl-melflufen and melphalan were performed according to standard non-compartmental approach using Phoenix WinNonlin system (v. 6.3, Certara Company, USA).
After administration, Cmax, maximum concentration, and Tmax, time at which the maximum concentration was achieved, were read as the coordinates of the highest plasma concentration of the time course. Clast, last detectable concentration, and Tlast, time of the last detectable concentration, were reported as parameters.
The area under plasma concentration vs. time curve up to the last detectable concentration, AUClast, was calculated by the linear trapezoidal rule.
t1/2,z, the half-life of the terminal phase, was calculated by linear regression analysis of the natural-log concentration vs. time curve according to the formula: […]
AUC∞ the area under plasma concentration vs. time curve up to infinite time, was calculated by adding the portion of the area calculated as Clast/λz to AUClast assuming mono-exponential decay.

[2] = tested on: primary cultures of human tumour cells; settings: panels of primary cultures of human tumour cells; cited from earlier work
[3] = 2-fold melflufen-d5 (III) dose increase (1.25 to 2.5 mg/kg), combined genders
[4] = both sexes, 1.25 mg/kg, group 2: melflufen-d5 (III) 1.25 mg/kg 30 min infusion, M + F combined
[5] = both sexes, 2.5 mg/kg, group 3: melflufen-d5 (III) 2.5 mg/kg 30 min infusion, M + F combined
[6] = both sexes, 2.5 mg/kg, group 4: melflufen 2.5 mg/kg 30 min infusion, M + F combined
[7] = female, 1.25 mg/kg, group 2: melflufen-d5 (III) 1.25 mg/kg 30 min infusion, females
[8] = female, 2.5 mg/kg, group 3: melflufen-d5 (III) 2.5 mg/kg 30 min infusion, females
[9] = female, 2.5 mg/kg, group 4: melflufen 2.5 mg/kg 30 min infusion, females
[10] = male, 1.25 mg/kg, group 2: melflufen-d5 (III) 1.25 mg/kg 30 min infusion, males
[11] = male, 2.5 mg/kg, group 3: melflufen-d5 (III) 2.5 mg/kg 30 min infusion, males
[12] = male, 2.5 mg/kg, group 4: melflufen 2.5 mg/kg 30 min infusion, males
[13] = group 2: melflufen-d5 (III) 1.25 mg/kg 30 min infusion, M + F combined
[14] = group 2: melflufen-d5 (III) 1.25 mg/kg 30 min infusion, females
[15] = group 2: melflufen-d5 (III) 1.25 mg/kg 30 min infusion, males
[16] = group 3: melflufen-d5 (III) 2.5 mg/kg 30 min infusion, M + F combined
[17] = group 3: melflufen-d5 (III) 2.5 mg/kg 30 min infusion, females
[18] = group 3: melflufen-d5 (III) 2.5 mg/kg 30 min infusion, males
[19] = group 4: melflufen 2.5 mg/kg 30 min infusion, M + F combined
[20] = group 4: melflufen 2.5 mg/kg 30 min infusion, females
[21] = group 4: melflufen 2.5 mg/kg 30 min infusion, males

In the case of `N[C@@H](Cc1ccc(N(CCCl)CCCl)cc1)C(=O)N[C@@H](Cc1ccc(F)cc1)C(=O)O` [desethyl-melflufen, (2S)-2-[[(2S)-2-amino-3-[4-[bis(2-chloroethyl)amino]phenyl]propanoyl]amino]-3-(4-fluorophenyl)propanoic acid], the “increase of AUClast of the metabolite with dose” value [1, 3] is reported as 3.5 fold, the “increase of Cmax of the metabolite with dose” value [1, 3] is reported as 3.1 fold and the “exposure relative to the parent compound exposure” value ([1]; after melflufen-d5 (III) infusion) is reported as “about one-half”. For the same compound, the half-life ([1]; 2.5 mg/kg, after melflufen 2.5 mg/kg (group 4)) was 7 min, the half-life ([1]; 2.5 mg/kg, after melflufen-d5 (III) 2.5 mg/kg) was 5 min and the AUC(0-t) [1, 4] was 0.0144 µM·h. The Tmax [1, 4] was 30 min, the Cmax [1, 4] was 33.2 nM and the AUC(0-t) [1, 5] was 0.0506 µM·h. It also gave a Tmax [1, 5] of 27.5 min, a Cmax [1, 5] of 102 nM and an AUC(0-t) [1, 6] of 0.0325 µM·h. The Tmax [1, 6] was 27.5 min, the Cmax [1, 6] was 71.4 nM and the “average exposure to the metabolite after infusion of melflufen compared with after infusion of melflufen-d5 (III)” value ([1]; each at 2.5 mg/kg) was “lower”. It also gave an AUC(0-t) [1, 7] of 0.0132 µM·h, a Tmax [1, 7] of 30 min and a Cmax [1, 7] of 30.8 nM. The AUC(0-t) [1, 8] was 0.0358 µM·h, the Tmax [1, 8] was 30 min and the Cmax [1, 8] was 70.3 nM. For the same compound, the AUC(0-t) [1, 9] was 0.0287 µM·h, the Tmax [1, 9] was 25 min and the Cmax [1, 9] was 60.5 nM. For the same compound, the “increase of systemic exposure with increasing doses, assuming dose proportionality” value [1] was “slightly more than expected”, the “no longer detectable after, post-dosing” value ([1]; labelled metabolite after 1.25-2.5 mg/kg melflufen-d5 (III) infusion) was 40 to 60 min and the “time of maximal plasma concentration” value ([1]; labelled metabolite after 1.25 and 2.5 mg/kg melflufen-d5 (III) infusion (groups 2 and 3)) was 15 to 30 min. The AUC(0-t) [1, 10] was 0.0155 µM·h, the Tmax [1, 10] was 30 min and the Cmax [1, 10] was 35.6 nM. It also gave an AUC(0-t) [1, 11] of 0.0655 µM·h, a Tmax [1, 11] of 25 min and a Cmax [1, 11] of 134 nM. It also gave an AUC(0-t) [1, 12] of 0.0363 µM·h, a Tmax [1, 12] of 30 min and a Cmax [1, 12] of 82.2 nM. For the same compound, the Tlast [1, 13] was 0.667 h, the Tlast [1, 14] was 0.667 h and the Tlast [1, 15] was 0.667 h. The Tlast [1, 16] was 1.00 h, the Tlast [1, 17] was 1.00 h and the Tlast [1, 18] was 1.00 h. It also gave a Tlast [1, 19] of 0.945 h, a Tlast [1, 20] of 0.889 h and a Tlast [1, 21] of 1.00 h.
With `CCOC(=O)[C@H](Cc1ccc(F)cc1)NC(=O)[C@@H](N)Cc1ccc(N(CCCl)CCCl)cc1` [melflufen, L-Melphalanyl-4-fluoro-L-phenylalanine ethyl ester] the AUC(0-t) [1, 6] was 0.0433 µM·h, the Tmax [1, 6] was 20 min and the Cmax [1, 6] was 144 nM. For the same compound, the “average exposure to melflufen, fold lower than that to melflufen-d5 (III)” value ([1]; each at 2.5 mg/kg (group 4 vs group 3)) was 2 fold, the AUC(0-t) [1, 9] was 0.0539 µM·h and the Tmax [1, 9] was 25 min. The Cmax [1, 9] was 163 nM, the AUC(0-t) [1, 12] was 0.0326 µM·h and the Tmax [1, 12] was 15 min. It also gave a Cmax [1, 12] of 124 nM, a Tlast [1, 19] of 0.500 h and a Tlast [1, 20] of 0.500 h. For the same compound, the Tlast [1, 21] was 0.500 h, the “time of peak in plasma” value ([1]; melflufen infused for 30 minutes at 2.5 mg/kg (group 4)) was 15 to 30 min and the “efficacy, fold higher than melphalan” value [2] was 50 to 100 fold.
In the case of `[2H]C([2H])([2H])C([2H])([2H])OC(=O)C(Cc1ccc(F)cc1)NC(=O)C(N)Cc1ccc(N(CCCl)CCCl)cc1` [melflufen-d5 (III), (^2H5)ethyl (2S)-2-[(2S)-2-amino-3-{4-[bis(2-chloroethyl)amino]phenyl}propanamido]-3-(4-fluorophenyl)propanoate hydrochloride], the “increase of exposure with the dose in terms of peak and area under the curve” value ([1]; 2.5 vs 1.25 mg/kg melflufen-d5 (III) (2-fold dose increase), combined gender parameters) is reported as 2.7 fold, the AUC(0-t) [1, 4] is reported as 0.0336 µM·h and the Tmax [1, 4] is reported as 22.5 min. The Cmax [1, 4] was 98.5 nM, the AUC(0-t) [1, 5] was 0.0902 µM·h and the Tmax [1, 5] was 22.5 min. The Cmax [1, 5] was 253 nM, the “exposure after infusion of melflufen-d5 (III) compared to melflufen” value ([1]; equivalent doses) was “consistently higher” and the AUC(0-t) [1, 7] was 0.0296 µM·h. The Tmax [1, 7] was 30 min, the Cmax [1, 7] was 99.3 nM and the AUC(0-t) [1, 8] was 0.0564 µM·h. For the same compound, the Tmax [1, 8] was 20 min, the Cmax [1, 8] was 159 nM and the “increase of systemic exposure with increasing doses, assuming dose proportionality” value [1] was “slightly more than expected”. The AUC(0-t) [1, 10] was 0.0377 µM·h, the Tmax [1, 10] was 15 min and the Cmax [1, 10] was 97.7 nM. For the same compound, the AUC(0-t) [1, 11] was 0.124 µM·h, the Tmax [1, 11] was 25 min and the Cmax [1, 11] was 346 nM. For the same compound, the Tlast [1, 13] was 0.528 h, the Tlast [1, 14] was 0.50 h and the Tlast [1, 15] was 0.556 h. It also gave a Tlast [1, 16] of 0.611 h, a Tlast [1, 17] of 0.611 h and a Tlast [1, 18] of 0.611 h. For the same compound, the “disappeared from plasma, time from start of dosing” value ([1]; melflufen-d5 (III) infused for 30 minutes at 1.25 and 2.5 mg/kg (groups 2 and 3)) was ≤ 40 min.
